Consider 4 molecules from patent US8859625B2, “Methods to prepare penta-1,4-dien-3-ones and substituted cyclohexanones and derivatives with antitumoral and antiparasitic properties, the compounds and their uses” (Universidade Bandeirante de Sao Paulo-Academia, Paulista …, priority 2006, dated 2014).

For data set [1] the following is noted: cited from earlier work.
The nature of data set [2]: Acute and subchronic toxicology in Balb-c mice by the endovenous route. The class given is in vivo. As to the method: Acute and Subchronic Toxicology of DM-1 in Balb-c Mice by the Endovenous Route.
Balb-c mice were weighted and housed in the biotery, subdivided into groups of 05 animals per cage and, after two weeks, received the DM-1 compound in different concentrations by the endovenous route. The compound was administered in a 0.2 mL volume using microseringe, for all concentrations, through the retro-orbital venous plexus.

Data set [3] deals with B16F10 melanoma cells. Briefly: Cytotoxic and antiproliferative effects by the MTT colorimetric method on B16F10 melanoma cells. The data set is classed as cell-based, murine. As to conditions: for IC50: Mus musculus. The text has this:
Analysis of Cytotoxic and Antiproliferative Effects of HB-1 Compound and Miglyol 810® as Control by the MTT Colorimetric Method on B16F10 Melanoma Cells.
The colorimetric methodology for the respiratory route of mitochondria MTT (3-(4,5-dimethylthiazol-2-yl)2,5-diphenyl tetrazolium bromide) was used, as described by MOSMANN (1983). This method is based on the reduction of MTT to formazan by living cells. After growth and in vitro confluence of normal and tumoral cells, different concentrations of the HB-1 compound diluted in Miglyol 810® and the diluent-control (Miglyol 810®) have been added on the adhering cells, incubated for 24 hour. After the referred period, 10 μl of MTT (5 mg/mL) were added and incubated for 3 hours in stove with 5% CO2 at 37° C. After this period, the content of the culture plates were centrifuged for 2 minutes at 1800 rpm, at 4° C., the supernatant was removed and 100 μL of dimethyl sulfoxide (DMSO) were added to dissolve formazan crystals previously constituted and precipitated. The absorbances were obtained by an ELISA reader at 540 nm (TiterTek Multiskan) wavelength, with the results obtained shown in FIG. 12.
IC50 Evaluation for B16F10 Melanoma Cells, Obtained from the Linear Equation.
Background: Tetrazolium dyes change colour on reduction, which living cells bring about.

Data set [4] concerns B16F10 melanoma. Briefly: B16F10 melanoma tumors implanted in C57BL/6J mice, intraperitoneal treatment; tumor area and volume. The class given is in vivo. As to conditions: diluted in Miglyol 810, intraperitoneal 100 μl daily, 14 days. Here is the method:
After the Day 4 of tumor cells implant (2×10^5 tumoral cells/mL), the animals were splitted in two groups: the test group, treated with HB-1 compound diluted in Miglyol 810® and the control group, which received only the diluent (Miglyol 810®) in the same volume as the test group. The animals were daily treated by intraperitoneal route. Concomitantly, measurements of animal weight and tumor size (two measures—length×width) were performed and tumor aspect registered by photographies.
After the Day 14, the animals were sacrificed by cervical displacement, tumors were removed, and necropsy performed to remove all internal organs and macroscopic lesions for hystopathologic analysis.
Tumoral parameters were obtained by calculation of tumor average area (A) and volume (V), through the following formulas A=πR^2 and V=4/3πR^3, where (R=average tumor radius). […]
After tumoral cell implant, the animals were treated with the HB-2 compound diluted in Miglyol 810® and with (HB2+HB-1) conjugate whereas the control group received the same volume of diluent and by the same administration route (intraperitoneal—100 μl). Daily, the animals received the compounds (100 μl) and the control group received Miglyol 810®, the animals were weighted, and the tumors were measured (length×width) and photographed. […]

Data set [5] has as its system human fibroblasts of normal skin. Nature of the data set: MTT cytotoxic and antiproliferative effects on human fibroblasts of normal skin. To be noted: diluted in Miglyol 810, 24 hours. The class given is cell-based. Here is the method:
Analysis of Cytotoxic Effects by the MTT Method and Antiproliferative Effects for HB-2 Compound Diluted in Miglyol 810® and Miglyol 810® Control on Human Fibroblasts of Normal Skin.
Skin fragments were asseptically collected during surgical procedures for tissue remotion in aesthetic surgery and immediately transferred to 50 mL sterile vials containing HAM F-12 (Gibco) culture medium supplemented with 20% of bovine fetal serum. Fragments were chopped, cleaned, and the smaller fragments were cultivated in Petri dishes in a Ham-F12 culture medium supplemented with 10% bovine fetal serum, and kept in humidified stoven at 37° C. and 5% C02.
When attained subconfluence, the cells were trypsinized for 5 minutes, inactivated with 10% bovine fetal serum, centrifuged for 10 minutes at 2000 rpm at 4° C., transferred to 96 well flat bottom plates, and cultivated for 24 hours in a CO2 5% stoven. Fibroblasts were treated for 24 hours with different concentrations of HB-2 compound diluted in Miglyol 810® and the control group received the same volumes of Miglyol alone; cytotoxic and antiproliferative effects were evaluated by the MTT colorimetric method.

For data set [6], the system named is T lymphocytes. Nature of the data set: Cytotoxic and proliferative activity on T lymphocytes (MTT, compared to PHA). The class given is cell-based, C57BL/6J mice. Here is the method:
Preparation of T Lymphocytes
Groups composed by 5 C57BL/6J mice of 2 months of age were sacrificed by cervical displacement and its lymph nodes chain from axillary, popliteal, and mesenteric regions were removed under sterile conditions. Lymph nodes were maintained in RPMI-1640 culture medium supplemented with 10% inactivated bovine fetal serum at 56° C. in the presence of antibiotics, and debridement was performed with the assistance of a bistury. The resulting cell suspension was filtered through 30 μm dialysis membrane and centrifuged for 10 minutes at 1800 rpm at 4° C. Cell pellet was resuspended in 5 mL RPMI complete medium and, after that, incubated in Petri dishes containing 10 mL bovine fetal serum for 1 hour in stove, at 37° C. and 5% CO2. […] Cell concentration was adjusted in Mallassez chamber to a 5×10^5 cells/mL concentration and cell viability was determined by the exclusion method with Trypan blue.
Cytotoxic and proliferative activities were determined in a 96 well plate and compared to mitogenic activity of phytohemagglutinin (PHA) and evaluated by the MTT calorimetric method. The obtained values were expressed as percentage.
The data of each experiment were statistically analysed by the ANOVA variance test with de p<0.05 significance.

Like-named read-outs stand apart in the source and are kept apart here.

Take `COc1cccc2c1C(=O)c1c(O)c3c(c(O)c1C2=O)C[C@@](O)(C(=O)CO)C[C@@H]3O[C@H]1C[C@H](N)[C@H](O)[C@H](C)O1` [Doxorubicin]: the “50% LETHAL DOSE” value in data set [1] (background table) was 20 mg/kg. In data set [1] (comparison table, drugs of the therapeutics), the “LETAL DOSE 50%” value is recorded as 20 mg/kg.

As for `COc1cc(/C=C/C(=O)/C=C/c2ccc(O)c(OC)c2)ccc1[O-].[Na+]` [DM-1, sodium 4-[5-(4-hydroxy-3-methoxy-phenyl)-3-oxo-penta-1,4-dienyl]-2-methoxy-phenolate], the “LD50 compared to doxorubicin, fold smaller” value in data set [2] (Balb-c, mouse, in vivo, 24 h) was 35 fold. Moreover, in data set [2] (endovenous route), the “50% lethal dose (DL50)” value was determined as 14 mg/kg and the maximum tolerable dose turned out to be 14 mg/kg. Further, in data set [2] (endovenous, 0.2 mL via retro-orbital venous plexus), the “behavioral alteration after the administration” value is recorded as “no behavioral alteration was observed”. Besides, the “macroscopic and hystopathologic alterations of the internal organs” value in data set [2] (necropsy at Day 30) was “no significant macroscopic and hystopathologic alterations”. The “acute respiratory and cardiac toxicity” value in data set [2] (preclinic tests) was “has not present any suggestive effect of acute respiratory and cardiac toxicity”. Further, the “increase in cytotoxic effects (in vitro efficacy)” value in data set [3] (monosodium composition relative to HB-1) was 7.0 fold.

As for `COc1cc(C=CC(=O)C=Cc2ccc(OC(C)=O)c(OC)c2)ccc1OC(C)=O` [HB-2, 4-[5-(4-acetoxy-3-methoxy-phenyl)-3-oxo-penta-1,4-dienyl]-2-methoxy-phenylacetate], the “reduction of tumoral burden (tumor area and volume)” value in data set [4] worked out at 60%. The “cytotoxic effect in normal human fibroblasts” value in data set [5] is on record as “no cytotoxic effect was observed”.

`COc1cc(/C=C/C(=O)/C=C/c2ccc([O-])c(OC)c2)ccc1[O-].[Na+].[Na+]` [DM-2, disodium 3-oxo-penta-1,4-dienyl-bis(2-methoxy-phenolate)]: the “LETAL DOSE 50%” value in data set [2] (comparison table, own compound) stood at 700 mg/kg. For the same molecule, the “toxic activity on normal cells” value in data set [6] (T lymphocytes) was “no toxic activity on normal cells”. In data set [6] (different concentrations, compared to PHA 2.5 and 5.0 μg), the “proliferative activity of T lymphocytes” value is “induced no proliferative activity”. Besides, in data set [3], the “in vitro efficacy in relation to the monosodium DM-1 compound, fold smaller” value was “around 6.0 fold”. The IC50 in data set [3] (B16-F10, read-out: DOSE, footnote: obtained by preclinic experimental models) turned out to be 1.9 µg/mL; in data set [3] (B16-F10, sodium salts, B16F10 murine melanoma, MTT, read-out: IC50) it was 7.95 µg/mL.
